Source: BindingDB's records for doi:10.1074/jbc.M113.487736 (Universität Duisburg-Essen, 2014)

What was measured:
[1] = molecular target: T1, NAD-dependent protein deacetylase sirtuin-1 (Homo sapiens, UniProt Q96EB6); assay: Fluorescence-Based Deacetylation Assay; conditions: pH 8; 37 °C
T1 sequence (Q96EB6 whole entry): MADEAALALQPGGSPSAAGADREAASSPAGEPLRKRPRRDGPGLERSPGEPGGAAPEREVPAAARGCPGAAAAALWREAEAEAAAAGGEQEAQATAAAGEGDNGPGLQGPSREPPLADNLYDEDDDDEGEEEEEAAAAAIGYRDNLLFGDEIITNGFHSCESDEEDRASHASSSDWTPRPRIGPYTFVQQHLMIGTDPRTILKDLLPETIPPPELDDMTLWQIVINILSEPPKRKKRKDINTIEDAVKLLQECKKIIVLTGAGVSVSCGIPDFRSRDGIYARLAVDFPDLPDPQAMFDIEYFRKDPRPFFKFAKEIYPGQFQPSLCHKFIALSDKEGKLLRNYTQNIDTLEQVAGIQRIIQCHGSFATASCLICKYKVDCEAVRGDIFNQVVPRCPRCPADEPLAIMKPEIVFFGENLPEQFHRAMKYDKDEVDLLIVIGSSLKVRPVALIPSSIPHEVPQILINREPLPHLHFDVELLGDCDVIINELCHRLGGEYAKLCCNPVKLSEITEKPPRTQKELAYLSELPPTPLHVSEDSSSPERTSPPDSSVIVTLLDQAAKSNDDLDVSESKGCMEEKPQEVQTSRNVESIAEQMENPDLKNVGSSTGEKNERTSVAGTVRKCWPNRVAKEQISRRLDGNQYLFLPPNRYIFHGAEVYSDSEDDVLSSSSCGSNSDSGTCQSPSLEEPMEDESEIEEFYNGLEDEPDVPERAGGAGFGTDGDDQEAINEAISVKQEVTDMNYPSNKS
Protocol: (§1) Deacetylation assays using Boc(Ac)Lys-7-amino-4-methyl-coumarin (MAL; Bachem, Bubendorf, Switzerland) as a substrate were performed in a volume of 20 μl in 384-well low volume plates (Eppendorf) in a reaction buffer containing 25 mM Tris-HCl (pH 8.0), 137 mM NaCl, 1 mM MgCl2, 2.7 mM KCl, 1 mg/ml BSA, and 1mM DTT. Enzymes were added at different concentrations to wells in a volume of 10 μl and were preincubated with inhibitors (volume 1 μl, diluted in dimethyl sulfoxide) or with dimethyl sulfoxide as a control for 10 min at room temperature. Subsequently, 10 μl 2× concentrated substrate solution containing 200 μM MAL and 2 mM NAD+ was added to initiate the reaction, which was incubated at 37 °C for 4 h. This allowed for ~50% deacetylation of MAL. After incubation, 20 μl of trypsin solution (0.5 mg/ml) was added, and the trypsin cleavage reaction was allowed to proceed at 37 °C for 1 h. Fluorescence readings were obtained using a fluorescence reader(GENiosPro TECAN), with the excitation wavelength set to 360 nm and the emission set to 465 nm.

[2] = molecular target: T2, NAD-dependent protein deacetylase sirtuin-2 (Homo sapiens, UniProt Q8IXJ6); assay: Fluorescence-Based Deacetylation Assay; conditions: pH 8; 37 °C
T2 sequence (Q8IXJ6 whole entry): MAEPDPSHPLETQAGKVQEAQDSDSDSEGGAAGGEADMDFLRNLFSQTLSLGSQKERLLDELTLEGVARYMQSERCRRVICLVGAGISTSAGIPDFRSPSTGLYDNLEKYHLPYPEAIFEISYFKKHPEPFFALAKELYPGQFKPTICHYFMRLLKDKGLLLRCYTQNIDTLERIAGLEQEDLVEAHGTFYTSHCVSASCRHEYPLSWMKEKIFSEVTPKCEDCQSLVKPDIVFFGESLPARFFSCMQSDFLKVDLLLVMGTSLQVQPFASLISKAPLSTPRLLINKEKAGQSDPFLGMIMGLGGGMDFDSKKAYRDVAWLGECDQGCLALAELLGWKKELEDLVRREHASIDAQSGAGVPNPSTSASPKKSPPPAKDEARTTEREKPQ
Protocol: as §1

| IC50 [1] | IC50 [2] | Compound |
| --- | --- | --- |
| > 100 µM | 3.8 µM | O=C(NCc1cccnc1)c1ccc2c(c1)C1C3CCC(C3)C1C(c1ccccc1)N2 (stereo not given) [AEM2] |
| 118 µM | 18.5 µM | NC(=O)c1ccc2c(c1)C1C3CCC(C3)C1C(c1ccccc1)N2 (stereo not given) [AEM1] |
| – | 18.7 µM | COCCCNC(=O)c1ccc2c(c1)C1C3CCC(C3)C1C(c1ccccc1)N2 (stereo not given) [AEM1 derivative, 1] |
